In patent US9023821B2, “Use of MicroRNA for treating diseases associated with a dysfunction of the cilia in multiciliated epithelial cells” (Centre National de la Recherche Scientifique, priority 2009, dated 2015):

Key:
[1] = tested on: human airway epithelial cells (HAECs); test: High-throughput sequencing (HTS) of miRNAs at four stages of differentiation of HAECs; conditions: for Modulation (ratio of the level of intensity of expression in log2 in two stages of differentiation) measured by high-throughput sequencing, D7 − D0 / Modulation (ratio of the level of intensity of expression in log2 in two stages of differentiation) measured by high-throughput sequencing, FC − D7 / Modulation (ratio of the level of intensity of expression in log2 in two stages of differentiation) measured by high-throughput sequencing, WD − D0 / Modulation (ratio of the level of intensity of expression in log2 in two stages of differentiation) measured by high-throughput sequencing, WD − FC / Level of intensity of expression in log2 measured by high-throughput sequencing, D0 / Level of intensity of expression in log2 measured by high-throughput sequencing, D7 / Level of intensity of expression in log2 measured by high-throughput sequencing, FC / Level of intensity of expression in log2 measured by high-throughput sequencing, WD: Table VI; for Modulation (ratio of the level of intensity of expression in log2 in two stages of differentiation), D7 − D0 / Modulation (ratio of the level of intensity of expression in log2 in two stages of differentiation), FC − D7 / Modulation (ratio of the level of intensity of expression in log2 in two stages of differentiation), WD − FC / Abundance (%), D0 / Abundance (%), D7 / Abundance (%), FC / Abundance (%), WD: HTS; for Abundance (%), D0: ALI-D0; for Abundance (%), D7: ALI-D7; for Abundance (%), FC: ALI-FC; for Abundance (%), WD: ALI-WD; for Level of intensity of expression in log2 At the differentiated stage (WD) measured in HTS: healthy human airway epithelial tissue; for Level of intensity of expression in log2 measured by high-throughput sequencing, D0: stage D0; for Level of intensity of expression in log2 measured by high-throughput sequencing, D7: stage D7; for Level of intensity of expression in log2 measured by high-throughput sequencing, FC: stage FC; for Level of intensity of expression in log2 At the differentiated stage (WD) measured in HTS / Level of intensity of expression in log2 measured by high-throughput sequencing, WD: stage WD
How it was run: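 ALI cultures sampled at day 0, day 7, first-cilia stage (~14 d) and full differentiation (~21 d). Trizol lysis, column purification retaining small RNAs. Adaptor ligation, RT at 42° C for 30 min, PCR, gel selection of ~105-150 base products.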

[2] = tested on: human airway epithelial cells (HAECs); test: Agilent miRNA chips, miRNA expression at four stages of differentiation of HAECs; conditions: for Modulation (ratio of the level of intensity of expression in log2 in two stages of differentiation) measured with the Agilent chips, D7 − D0 / Modulation (ratio of the level of intensity of expression in log2 in two stages of differentiation) measured with the Agilent chips, FC − D7 / Modulation (ratio of the level of intensity of expression in log2 in two stages of differentiation) measured with the Agilent chips, WD − D0 / Modulation (ratio of the level of intensity of expression in log2 in two stages of differentiation) measured with the Agilent chips, WD − FC / Level of intensity of expression in log2 measured with the Agilent chips, D0 / Level of intensity of expression in log2 measured with the Agilent chips, D7 / Level of intensity of expression in log2 measured with the Agilent chips, FC / Level of intensity of expression in log2 measured with the Agilent chips, WD: Table VI; for Level of intensity of expression in log2 measured with the Agilent chips, D0: stage D0; for Level of intensity of expression in log2 measured with the Agilent chips, D7: stage D7; for Level of intensity of expression in log2 measured with the Agilent chips, FC: stage FC; for Level of intensity of expression in log2 measured with the Agilent chips, WD: stage WD; for Modulation (ratio of the level of intensity of expression in log2 at two stages of differentiation), FC − D7 / Modulation (ratio of the level of intensity of expression in log2 at two stages of differentiation), WD − FC: Agilent miRNA chips, Table V
How it was run: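 Microarray v2 (866 human + 89 viral miRNAs; miRBase v.12.0). Input: RNA from the same donors as sequencing. Labelling/hybridization per kit protocol. Profiles cross-checked vs sequencing.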

[3] = tested on: basal cells and pyramidal cells of the airway epithelium; test: miRNA expression in sorted basal cells versus pyramidal cells (ciliated + secretory), HTS and Agilent chips; set-up: species or system human; conditions: for Modulation of expression of the miRNAs in pyramidal cells (323(−)) relative to basal cells 323(+): HTS and Agilent chips; for Intensity of the level of expression in log2 in pyramidal cells (323(−)): pyramidal cells (ciliated + secretory)
How it was run: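 FACS on CD151 and tissue factor: double-positive = basal, double-negative = ciliated + mucus cells; DAPI, doublets, aggregates excluded; sort at 5000 events/s. Purity checked by cytometry/immunocytochemistry. miRNA by Agilent array or HTS on total RNA. Source: nasal polyps/conchae, 3 donors.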

| Substance | Modulation (ratio of the level of intensity of expression in log2 in two stages of differentiation) measured by high-throughput sequencing, D7 − D0 [1] | Modulation (ratio of the level of intensity of expression in log2 in two stages of differentiation) measured by high-throughput sequencing, FC − D7 [1] | Modulation (ratio of the level of intensity of expression in log2 in two stages of differentiation) measured by high-throughput sequencing, WD − D0 [1] | Modulation (ratio of the level of intensity of expression in log2 in two stages of differentiation) measured by high-throughput sequencing, WD − FC [1] | Level of intensity of expression in log2 At the differentiated stage (WD) measured in HTS [1] | Level of intensity of expression in log2 measured by high-throughput sequencing, D0 [1] | Level of intensity of expression in log2 measured by high-throughput sequencing, D7 [1] | Level of intensity of expression in log2 measured by high-throughput sequencing, FC [1] | Level of intensity of expression in log2 measured by high-throughput sequencing, WD [1] | Modulation (ratio of the level of intensity of expression in log2 in two stages of differentiation) measured with the Agilent chips, D7 − D0 [2] | Modulation (ratio of the level of intensity of expression in log2 in two stages of differentiation) measured with the Agilent chips, FC − D7 [2] | Modulation (ratio of the level of intensity of expression in log2 in two stages of differentiation) measured with the Agilent chips, WD − D0 [2] | Modulation (ratio of the level of intensity of expression in log2 in two stages of differentiation) measured with the Agilent chips, WD − FC [2] | Level of intensity of expression in log2 measured with the Agilent chips, D0 [2] | Level of intensity of expression in log2 measured with the Agilent chips, D7 [2] | Level of intensity of expression in log2 measured with the Agilent chips, FC [2] | Level of intensity of expression in log2 measured with the Agilent chips, WD [2] | Modulation of expression of the miRNAs in pyramidal cells (323(−)) relative to basal cells 323(+) [3] | Intensity of the level of expression in log2 in basal cells (323(+)) [3] | Intensity of the level of expression in log2 in pyramidal cells (323(−)) [3] | further results |
| --- | --- | --- | --- | --- | --- | --- | --- | --- | --- | --- | --- | --- | --- | --- | --- | --- | --- | --- | --- | --- | --- |
| hsa-miR-191: human miRNA, SEQ ID No. 13 (CAACGGAAUCCCAAAAGCAGCUG; expressed or natural sequence; listed as Homo sapiens) | 0.90 log2 | 0.84 log2 | 2.15 log2 | 0.42 log2 | 16.82 log2 | 14.67 log2 | 15.57 log2 | 16.40 log2 | 16.82 log2 | 2.32 log2 | 0.29 log2 | 2.31 log2 | −0.30 log2 | 0.64 log2 | 2.97 log2 | 3.25 log2 | 2.95 log2 | 0.00 | 0.14 log2 | 0.14 log2 | Modulation (ratio of the level of intensity of expression in log2 in two stages of differentiation), D7 − D0 [1]: 0.90 log2; Modulation (ratio of the level of intensity of expression in log2 in two stages of differentiation), FC − D7 [1]: 0.84 log2; Modulation (ratio of the level of intensity of expression in log2 in two stages of differentiation), WD − FC [1]: 0.42 log2; Abundance (%), D0 [1]: 5.71%; Abundance (%), D7 [1]: 10.68%; Abundance (%), FC [1]: 18.46%; Abundance (%), WD [1]: 18.69% |
| hsa-miR-193b: human miRNA, SEQ ID No. 14 (AACUGGCCCUCAAAGUCCCGCU; expressed or natural sequence; listed as Homo sapiens) | −1.17 log2 | −0.90 log2 | −1.60 log2 | 0.48 log2 | 11.67 log2 | 13.26 log2 | 12.09 log2 | 11.19 log2 | 11.67 log2 | −0.67 log2 | −1.19 log2 | −1.93 log2 | −0.07 log2 | 8.62 log2 | 7.95 log2 | 6.76 log2 | 6.69 log2 | −3.57 | 3.90 log2 | 0.33 log2 | Modulation (ratio of the level of intensity of expression in log2 in two stages of differentiation), D7 − D0 [1]: −1.17 log2; Modulation (ratio of the level of intensity of expression in log2 in two stages of differentiation), FC − D7 [1]: −0.90 log2; Modulation (ratio of the level of intensity of expression in log2 in two stages of differentiation), WD − FC [1]: 0.48 log2; Abundance (%), D0 [1]: 2.16%; Abundance (%), D7 [1]: 0.96%; Abundance (%), FC [1]: 0.50%; Abundance (%), WD [1]: 0.52%; Modulation (ratio of the level of intensity of expression in log2 at two stages of differentiation), FC − D7 [2]: −1.19 log2; Modulation (ratio of the level of intensity of expression in log2 at two stages of differentiation), WD − FC [2]: −0.07 log2; cell type in which the miRNA is specifically expressed ([3]; sorted ciliated/pyramidal versus basal cells): more specific to the basal cells |
| hsa-miR-200a: human miRNA, SEQ ID No. 16 (UAACACUGUCUGGUAACGAUGU; expressed or natural sequence; listed as Homo sapiens) | 1.00 log2 | 0.67 log2 | 2.20 log2 | 0.54 log2 | 10.96 log2 | 9.02 log2 | 10.01 log2 | 10.68 log2 | 11.22 log2 | 1.94 log2 | 0.20 log2 | 2.20 log2 | 0.06 log2 | 8.64 log2 | 10.58 log2 | 10.79 log2 | 10.84 log2 | −0.95 | 8.80 log2 | 7.85 log2 | Modulation (ratio of the level of intensity of expression in log2 at two stages of differentiation), FC − D7 [2]: 0.20 log2; Modulation (ratio of the level of intensity of expression in log2 at two stages of differentiation), WD − FC [2]: 0.06 log2 |
| hsa-miR-200b: human miRNA, SEQ ID No. 17 (UAAUACUGCCUGGUAAUGAUGA; expressed or natural sequence; listed as Homo sapiens) | 0.76 log2 | 0.56 log2 | 2.36 log2 | 1.03 log2 | 10.64 log2 | 8.60 log2 | 9.37 log2 | 9.93 log2 | 10.96 log2 | 2.01 log2 | −0.07 log2 | 2.11 log2 | 0.17 log2 | 9.93 log2 | 11.94 log2 | 11.87 log2 | 12.04 log2 | −0.15 | 9.99 log2 | 9.84 log2 | Modulation (ratio of the level of intensity of expression in log2 at two stages of differentiation), FC − D7 [2]: −0.07 log2; Modulation (ratio of the level of intensity of expression in log2 at two stages of differentiation), WD − FC [2]: 0.17 log2 |
